Assay results reported in US20230365561A1, “BETA-LACTAMASE INHIBITORS AND THEIR PREPARATION” (NINGXIA ACADEMY OF AGRICUL TURE AND FORESTRY SCIENCES, priority 2020, published 2023).
Structures can show the parent of a compound that is named as a salt. Where two headings read alike, the source gives them in different places.

Legend:
Type in all cases: cell-based
[1] = tested on: E. coli clinical isolate (strain 1); experiment: MIC by broth microdilution (alone and in combination with meropenam), strain 1; conditions: Escherichia coli, compound alone
Procedure: (§1) Compounds of the present invention alone, meropenam (MER) alone, and as a combination with test antibiotic (meropenam) were tested for antimicrobial activity by determing minimum inhibitory concentration (MIC, mg/L) using the broth microdilution method according to the guidelines of the Clinical Laboratories and Stansards Insitute (“Methods for Dilution Antimicrobial Suscetibility Tests for Bacterial that Grow Aerobiclly”, Approved standard, […]., Clinical and Laboratories Stanards Institute (CLSI) Document M7-A8, Wayne, Pa., USA, 2009). Meropenam as a test antibiotic compound was dissolved in DMSO. Meropenam was then diluted in microbial growth medium (Mueller-Hinton Broth II, cation adjusted) resulting in a final concention range of 0.125-64 mg/L in serial two-fold dilution. In all cases the filnal DMSO concentraion was less than 0.5%. Bacteria were added to 96-well microtitre plates containing the serial two-fold dilutions of the compoumds; the final cell density was appoximately 5x10^5 colony forming units/mL (CFU/mL). Plates were incubated at 37° C. for 18-24 hours and read visually. The MIC, i.e. the lowest concentration of the test compound that inhibited visible growth of the bacteria, was recorded. The same assay conditions were used when the compounds of present invention alone, and as a combination with test meropenam antibiotic compound was tested for minmum inhibitory concentration (MIC, mg/L). Whileest meropenam was serially diluted as descrribed above, a constant concentration of the present invention of 4 µg/mL was used.
(§2) Bacterial strains that were used to evaluate the antimicrobial activity using the MIC determination included but were not limited to E. coli clinical isolate (strain 1), E. coli 8739 (strain 2), K. pneumoniae clinical isolate (strain 3), K. pneumoniae 700603 (strain 4), E. cloacae clinical isolate (strain 5), E. cloacae 700323 (strain 6), A. baumannii clinical isolate (strain 7), A. baumannii 19606 (strain 8), P. aeruginosa clinical isolate (strain 9), P. aeruginosa 9027 (strain 10).

[2] = tested on: P. aeruginosa 9027 (strain 10); experiment: MIC by broth microdilution (alone and in combination with meropenam), strain 10; conditions: Pseudomonas aeruginosa, compound alone
Procedure: as §1, §2

[3] = tested on: P. aeruginosa clinical isolate (strain 9); experiment: MIC by broth microdilution (alone and in combination with meropenam), strain 9; conditions: Pseudomonas aeruginosa, compound alone
Procedure: as §1, §2

[4] = tested on: A. baumannii clinical isolate (strain 7); experiment: MIC by broth microdilution (alone and in combination with meropenam), strain 7; conditions: Acinetobacter baumannii, compound alone
Procedure: as §1, §2

[5] = tested on: K. pneumoniae 700603 (strain 4); experiment: MIC by broth microdilution (alone and in combination with meropenam), strain 4; conditions: Klebsiella pneumoniae, compound alone
Procedure: as §1, §2

[6] = tested on: E. cloacae 700323 (strain 6); experiment: MIC by broth microdilution (alone and in combination with meropenam), strain 6; conditions: Enterobacter cloacae, compound alone
Procedure: as §1, §2

[7] = tested on: E. cloacae clinical isolate (strain 5); experiment: MIC by broth microdilution (alone and in combination with meropenam), strain 5; conditions: Enterobacter cloacae, compound alone
Procedure: as §1, §2

E. coli 8739 (strain 2) = experiment: MIC by broth microdilution (alone and in combination with meropenam), strain 2; conditions: Escherichia coli, compound alone
Procedure: as §1, §2

[8] = tested on: A. baumannii 19606 (strain 8); experiment: MIC by broth microdilution (alone and in combination with meropenam), strain 8; conditions: Acinetobacter baumannii, compound alone
Procedure: as §1, §2

[9] = tested on: K. pneumoniae clinical isolate (strain 3); experiment: MIC by broth microdilution (alone and in combination with meropenam), strain 3; conditions: Klebsiella pneumoniae, compound alone
Procedure: as §1, §2

[10] = read-out: MIC, antibacterial activity of example alone

Measured: MIC

CN1CC[C@@H](C(=O)NC(=N)[C@@H]2CC[C@@H]3CN2C(=O)N3OS(=O)(=O)O)C1 [Ex.33, Sodium (2S,5R)-2-(N-((R)-1-methylpyrrolidine-3-carbonyl)carbamimidoyl)-7-oxo-1,6-diazabicyclo[3.2.1]octan-6-yl Sulfate]
> 64 µg/mL: [1]; [10] | [2]; [10] | [3]; [10] | [4]; [10] | [5]; [10] | [6]; [10] | [7]; [10] | E. coli 8739 (strain 2); [10] | [8]; [10] | [9]; [10]

N=C(NC(=O)C1CCCN=N1)[C@@H]1CC[C@@H]2CN1C(=O)N2OS(=O)(=O)[O-].[Na+] (stereo partly drawn) [Ex.52, Sodium (2S,5R)-7-oxo-2-(N-(3,4,5,6-tetrahydropyridazine-3-carbonyl)carbamimidoyl)-1,6-diazabicyclo[3.2.1]octan-6-yl Sulfate]
> 64 µg/mL: [1]; read-out: MIC | [2]; read-out: MIC | [3]; read-out: MIC | [4]; read-out: MIC | [5]; read-out: MIC | [6]; read-out: MIC | [7]; read-out: MIC | E. coli 8739 (strain 2); read-out: MIC | [8]; read-out: MIC | [9]; read-out: MIC

N=C(NC(=O)c1ccc(C(F)(F)F)cc1)[C@@H]1CC[C@@H]2CN1C(=O)N2OS(=O)(=O)[O-].[Na+] [Ex.49, Sodium (2S,5R)-7-oxo-2-(N-(4-(trifluoromethyl)benzoyl)carbamimidoyl)-1,6-diazabicyclo[3.2.1]octan-6-yl Sulfate]
> 64 µg/mL: [1]; read-out: MIC | [2]; read-out: MIC | [3]; read-out: MIC | [4]; read-out: MIC | [5]; read-out: MIC | [6]; read-out: MIC | [7]; read-out: MIC | E. coli 8739 (strain 2); read-out: MIC | [8]; read-out: MIC | [9]; read-out: MIC

N=C(NC(=O)c1cccnc1)[C@@H]1CC[C@@H]2CN1C(=O)N2OS(=O)(=O)O [Ex.5, (2S,5R)-2-(N-nicotinoylcarbamimidoyl)-7-oxo-1,6-diazabicyclo[3.2.1]octan-6-yl Hydrogen Sulfate]
> 64 µg/mL: [1]; [10] | [2]; [10] | [3]; [10] | [4]; [10] | [5]; [10] | [6]; [10] | [7]; [10] | E. coli 8739 (strain 2); [10] | [8]; [10] | [9]; [10]

N=C(NC(=O)CN)[C@@H]1CC[C@@H]2CN1C(=O)N2OS(=O)(=O)[O-].[Na+] [Ex.15, Sodium (2S,5R)-2-(N-glycylcarbamimidoyl)-7-oxo-1,6-diazabicyclo[3.2.1]octan-6-yl Sulfate]
> 64 µg/mL: [1]; [10] | [2]; [10] | [3]; [10] | [4]; [10] | [5]; [10] | [6]; [10] | [7]; [10] | E. coli 8739 (strain 2); [10] | [8]; [10] | [9]; [10]

CN1CCN(CC(=O)NC(=N)[C@@H]2CC[C@@H]3CN2C(=O)N3OS(=O)(=O)[O-])CC1.[Na+] [Ex.42, Sodium (2S,5R)-2-(N-(2-(4-methylpiperazin-1-yl)acetyl)carbamimidoyl)-7-oxo-1,6-diazabicyclo[3.2.1]octan-6-yl Sulfate]
> 64 µg/mL: [1]; [10] | [2]; [10] | [3]; [10] | [4]; [10] | [5]; [10] | [6]; [10] | [7]; [10] | E. coli 8739 (strain 2); [10] | [8]; [10] | [9]; [10]

N=C(NC(=O)c1csc(C(F)(F)F)n1)[C@@H]1CC[C@@H]2CN1C(=O)N2OS(=O)(=O)[O-].[Na+] [Ex.24, Sodium (2S,5R)-7-oxo-2-(N-(2-(trifluoromethyl)thiazole-4-carbonyl)carbamimidoyl)-1,6-diazabicyclo[3.2.1]octan-6-yl Sulfate]
> 64 µg/mL: [1]; [10] | [2]; [10] | [3]; [10] | [4]; [10] | [5]; [10] | [6]; [10] | [7]; [10] | E. coli 8739 (strain 2); [10] | [8]; [10] | [9]; [10]

N=C(NC(=O)CC1CCOCC1)[C@@H]1CC[C@@H]2CN1C(=O)N2OS(=O)(=O)[O-].[Na+] [Ex.38, Sodium (2S,5R)-7-oxo-2-(N-(2-(tetrahydro-2H-pyran-4-yl)acetyl)carbamimidoyl)-1,6-diazabicyclo[3.2.1]octan-6-yl Sulfate]
> 64 µg/mL: [1]; [10] | [2]; [10] | [3]; [10] | [4]; [10] | [5]; [10] | [6]; [10] | [7]; [10] | E. coli 8739 (strain 2); [10] | [8]; [10] | [9]; [10]

CCC(=O)NC(=N)[C@@H]1CC[C@@H]2CN1C(=O)N2OS(=O)(=O)[O-].[Na+] [Ex.3, Sodium (2S,5R)-7-oxo-2-(N-propionylcarbamimidoyl)-1,6-diazabicyclo[3.2.1]octan-6-yl Sulfate]
> 64 µg/mL: [1]; [10] | [2]; [10] | [3]; [10] | [4]; [10] | [5]; [10] | [6]; [10] | [7]; [10] | E. coli 8739 (strain 2); [10] | [8]; [10] | [9]; [10]

CC(C)(C)OC(=O)N1CCC(C(=O)NC(=N)[C@@H]2CC[C@@H]3CN2C(=O)N3OS(=O)(=O)[O-])CC1.[Na+] [Ex.14, Sodium (2S,5R)-2-(N-(1-(tert-butoxycarbonyl)piperidine-4-carbonyl)carbamimidoyl)-7-oxo-1,6-diazabicyclo[3.2.1]octan-6-yl Sulfate]
> 64 µg/mL: [1]; [10] | [2]; [10] | [3]; [10] | [4]; [10] | [5]; [10] | [6]; [10] | [7]; [10] | E. coli 8739 (strain 2); [10] | [8]; [10] | [9]; [10]

N=C(NC(=O)Cc1cccnc1)[C@@H]1CC[C@@H]2CN1C(=O)N2OS(=O)(=O)[O-].[Na+] [Ex.34, Sodium (2S,5R)-7-oxo-2-(N-(2-(pyridin-3-yl)acetyl)carbamimidoyl)-1,6-diazabicyclo[3.2.1]octan-6-yl sulfate]
> 64 µg/mL: [1]; [10] | [2]; [10] | [3]; [10] | [4]; [10] | [5]; [10] | [6]; [10] | [7]; [10] | E. coli 8739 (strain 2); [10] | [8]; [10] | [9]; [10]

CC(=O)NC1CCC(C(=O)NC(=N)[C@@H]2CC[C@@H]3CN2C(=O)N3OS(=O)(=O)[O-])CC1.[Na+] (stereo partly drawn) [Ex.40, Sodium (2S,5R)-2-(N-(4-acetamidocyclohexane-1-carbonyl)carbamimidoyl)-7-oxo-1,6-diazabicyclo[3.2.1]octan-6-yl Sulfate]
> 64 µg/mL: [1]; [10] | [2]; [10] | [3]; [10] | [4]; [10] | [5]; [10] | [6]; [10] | [7]; [10] | E. coli 8739 (strain 2); [10] | [8]; [10] | [9]; [10]

CC(=O)N1CCC[C@H](C(=O)NC(=N)[C@@H]2CC[C@@H]3CN2C(=O)N3OS(=O)(=O)[O-])C1.[Na+] [Ex.26, Sodium (2S,5R)-2-(N-((S)-1-acetylpiperidine-3-carbonyl)carbamimidoyl)-7-oxo-1,6-diazabicyclo[3.2.1]octan-6-yl Sulfate]
> 64 µg/mL: [1]; [10] | [2]; [10] | [3]; [10] | [4]; [10] | [5]; [10] | [6]; [10] | [7]; [10] | E. coli 8739 (strain 2); [10] | [8]; [10] | [9]; [10]

CN1CCC[C@H](C(=O)NC(=N)[C@@H]2CC[C@@H]3CN2C(=O)N3OS(=O)(=O)[O-])C1.[Na+] [Ex.28, Sodium (2S,5R)-2-(N-((S)-1-methylpiperidine-3-carbonyl)carbamimidoyl)-7-oxo-1,6-diazabicyclo[3.2.1]octan-6-yl Sulfate]
> 64 µg/mL: [1]; [10] | [2]; [10] | [3]; [10] | [4]; [10] | [5]; [10] | [6]; [10] | [7]; [10] | E. coli 8739 (strain 2); [10] | [8]; [10] | [9]; [10]

N#Cc1ccc(C(=O)NC(=N)[C@@H]2CC[C@@H]3CN2C(=O)N3OS(=O)(=O)[O-])cc1.[Na+] [Ex.45, Sodium (2S,5R)-2-(N-(4-cyanobenzoyl)carbamimidoyl)-7-oxo-1,6-diazabicyclo[3.2.1]octan-6-yl Sulfate]
> 64 µg/mL: [1]; read-out: MIC | [2]; read-out: MIC | [3]; read-out: MIC | [4]; read-out: MIC | [5]; read-out: MIC | [6]; read-out: MIC | [7]; read-out: MIC | E. coli 8739 (strain 2); read-out: MIC | [8]; read-out: MIC | [9]; read-out: MIC
